Data: PMC7070953, “Design of Light-Sensitive Triggers for Endothelial NO-Synthase Activation” (Antioxidants, 2020)
Entries after “also recorded” stand apart in the source; their conditions may differ. Read-outs that look alike come from different tables or passages of the source. Values belong to the molecule of their own block, whether it stands above or below them.

What was measured:
[1] = target: T1, nNOS (Rattus norvegicus, UniProt P29476); design: made in house; details: value used in the Cheng-Prusoff equation; no reference given; read-out: Km of NADPH for nNOS; cited from earlier work
[2] = system: HUVEC cells; design: key to NO Formed upon Laser Excitation: +: NO formed under laser excitation; −: a lack of NO formed under laser excitation; details: cited from earlier work; for NO produced in HUVEC cells upon light activation (in words): ref 15 (NT1), ref 19 (NT2_5), 19 (NT2_7)
[3] = system: NOS; design: method as in PMID 19222033, PMID 17263536; details: one and two-photon excitation; cited from earlier work
[4] = target: T1, nNOS; assay: Flavin reduction of nNOS upon light irradiation at 365 nm (absorption changes); type: biochemical; design: made in house; calmodulin purchased from Sigma; details: for FAD/flavin reduction upon light excitation (in words): irradiation at 365 nm
Protocol: Light irradiation of the NT -nNOS complexes in the presence of NOHA, H4B, and Ca^2+/calmodulin was performed by a continuous irradiation with a Hg/Xe lamp (Hamamatsu, LC6 Lightningcure, 200 W) equipped with narrow-band interference filter to select 365 nm (Semrock FF01-370/36: center wavelength 370 nm, nominal bandwidth […]) during one minute. The absorption changes before and after irradiation were measured on a Cary5000 spectrophotometer from Agilent Technologies (Les Ulys, France).
100 mM NOHA, 100 mM Ca^2+, 1 µg recombinant calmodulin, 20 mM Tris Buffer at pH = 7.8, 100 mM NaCl; representative data out of 2 experiments.

[5] = design: method as in earlier work; details: cited from earlier work
[6] = system: HUVEC cells; details: cited from earlier work
[7] = target: T1, nNOS; assay: Fluorescence titration of NT binding to recombinant nNOS; design: made in house; details: [nNOS] = 0–10 µM, 10 mM Tris pH 7.2, 100 mM NaCl, read-out: Apparent Kd nNOS
Protocol: (§1) The apparent binding affinities of the NTs to the neuronal (nNOS) and endothelial (eNOS) isoforms of nitric oxide synthase (NOS) were assessed by changes in NT intrinsic fluorescence using two types of titrations. In the first method, aliquots (1 μL) were added to 100 μL buffer containing NOS protein (5 μM), and fluorescence emission spectra were recorded from 430–700 nm (λexcitation = 420 nm; slit widths = 5 nm) on a Shimadzu RF-5301PC fluorimeter. Spectra of intrinsic protein fluorescence and unbound NT were subtracted from protein/NT spectra and the fluorescence at 460 nm was plotted against NT concentration. In the second method, we measured fluorescence spectra at a fixed concentration of the NT (1–2µM) with a Cary Eclipse spectrophotometer set at T = 20 °C, with excitation wavelength at 390 nm and emission wavelengths in the range 410–610 nm; the PM was usually set at 600 V with slits of 10 nm at both excitation and emission. […] The steady-state fluorescence anisotropy was calculated using: r = (IVV − G × IVH)/(IVV + 2G × IVH) where IVV and IVH correspond to vertical and horizontal components, respectively, when the sample is excited with vertically polarized light, G is the G-factor accounting for the difference in the monochromator transmission between // and ⊥ polarized components (G = IHV/IHH). […]

[8] = Self-association of free NTs in buffer (fluorescence vs concentration, fluorescence anisotropy); type: physicochemical
Protocol: as §1

[9] = target: T1, nNOS; design: made in house; method as in PMID 30986510; details: a: protein 5–10 µM, [NTs] = 0–50 µM; read-out: Apparent Kd nNOS; cited from earlier work

Compound: NC(=O)C1=CN([C@@H]2O[C@H](COP(=O)(O)OP(=O)(O)OC[C@H]3O[C@@H](n4cnc5c(N)ncnc54)[C@H](OP(=O)(O)O)[C@@H]3O)[C@@H](O)[C@H]2O)C=CC1 [NADPH]
- Km [1]: 5.5 µM

Compound: CCN(CCNC(=O)[C@H]1O[C@@H](n2cnc3c(N)ncnc32)[C@H](OP(=O)(O)O)[C@@H]1O)c1ccc(/C=C/C=C/c2ccc(N)cc2)cc1 [NT1]
- NO Formed upon Laser Excitation [2]: +
- NO produced in HUVEC cells upon light activation (in words) [2]: produced NO upon light activation
- Time of initiation and synchronization of NOS catalysis after photoexcitation [3]: 15–20 ps
- FAD/flavin reduction upon light excitation (in words) [4]: reduced FAD upon light excitation
- Self-association (in words) [5]: did not self-associate
- Not toxic to HUVEC up to concentration [6]: up to 20 µM

Compound: CN(Cc1cn(C[C@H]2O[C@@H](n3cnc4c(N)ncnc43)[C@H](OCC(=O)O)[C@@H]2OCC(=O)O)nn1)c1ccc(/C=C/C=C/c2ccc(N)cc2)cc1 [NT2_3]
- NO Formed upon Laser Excitation [2]: −
- FAD/flavin reduction upon light excitation (in words) [4]: could not reduce FAD

Compound: CN(Cc1cn(C[C@H]2O[C@@H](n3cnc4c(N)ncnc43)[C@H](OCC(=O)O)[C@@H]2O)nn1)c1ccc(/C=C/C=C/c2ccc(N)cc2)cc1 [NT2_7]
- NO Formed upon Laser Excitation [2]: −
- NO produced in HUVEC cells upon light activation (in words) [2]: unable to generate NO
- Kd [9]: 30 ± 4 µM

Second part, led by results:

- FAD/flavin reduction upon light excitation (in words) [4]: reduced FAD upon light excitation
- Kd ([7]; b: [NTs] = 1 or 2 µM): 1.3 ± 0.2 µM
- Kd ([7]; c: [NTs] = 2 µM, 100 mM NOHA): 4 ± 0.7 µM
- Concentration above which fluorescence of free NT deviates from linearity (self-association) ([8]; free NT in buffer, fluorescence at 460 nm, order NT3_3 > NT3_5 > NT2_5 > NT3_7): above 5 µM
Compound: CN(Cc1cn(C[C@H]2O[C@@H](n3cnc4c(N)ncnc43)[C@H](O)[C@@H]2OCC(=O)O)nn1)c1ccc(/C=C/C=C/c2ccc(N)cc2)cc1 [NT2_5]
- NO Formed upon Laser Excitation [2]: +
- NO produced in HUVEC cells upon light activation (in words) [2]: produced NO upon light activation
- Ground state (dark) FAD reduction, no light (in words) ([4]; no light): some ground state reduction; also recorded: can reduce FAD in the ground state
- Cytotoxicity in HUVEC cells above concentration ([6]; second generation of NT): above 5 µM

- Steady-state fluorescence anisotropy r ([8]; nNOS-free, NT3_3 at 5 µM, fluorescein as freely rotating monomer): 0.005
Compound: O=C1OC2(c3ccc(O)cc3Oc3cc(O)ccc32)c2ccccc21 [fluorescein, reference compound]
